# Assay results from patent US6380267B1, “Composition and method for decreasing neurologic symptomatology” (priority 1999, dated 2002).
# How the values were obtained:
# Assay type in all cases: in vivo, human
# [1] = tested on: patient who had Parkinson's Disease and severe dyskinesia; test: Treatment of a Parkinson's Disease patient with severe dyskinesia with sildenafil (Example I); conditions: one patient
# Protocol: A patient who had Parkinson's Disease for twelve years and who suffered from severe dyskinesia affecting all their extremities and their head and neck for five years was treated with the method for decreasing neurologic symptomatology according to the present invention. […] The patient was initially treated with 50 mg of sildenafil per day.
# [2] = tested on: patient who had Parkinson's Disease with tremor at rest and gait disturbance; test: Treatment of a Parkinson's Disease patient with tremor at rest and gait disturbance with sildenafil (Example II); conditions: one patient
# Protocol: A patient who had Parkinson's Disease for fifteen years and who suffered from tremor at rest and gait disturbance was treated with the method for decreasing neurologic symptomatology according to the present invention. […] The patient was initially treated with 25 mg of sildenafil per day.
# [3] = tested on: patients with Parkinson's Disease and dyskinesias; test: Treatment of seven patients with Parkinson's Disease and dyskinesias with sildenafil (Example III)
# Protocol: Seven additional patients with Parkinson's Disease and dyskinesias were treated with sildenafil at a dose of 25 mg per day in addition to their usual Parkinson's Disease medications. The patents were all Caucasian and ranged in age from between 55 to 70 years. Four of the patients were men and three were women.
# [4] = 25 mg sildenafil per day, after five months of treatment, on levodopa
smiles,measurement,setting,value
CCCc1nn(C)c2c(=O)[nH]c(-c3cc(S(=O)(=O)N4CCN(C)CC4)ccc3OCC)nc12 [sildenafil],dyskinesias during treatment,"[1]; 50 mg sildenafil per day initially, on levodopa",significantly reduced
same,signs and symptoms of Parkinson's Disease,"[1]; after more than one year of treatment, sildenafil decreased to 25 mg, levodopa 300-400 mg per day",significantly improved
same,gait disturbance,[2]; [4],improved significantly
same,tremor,[2]; [4],ceased
same,signs and symptoms of Parkinson's Disease,"[2]; after more than seven months of treatment, sildenafil 25 mg three times per day, levodopa 250 mg per day",significantly improved
same,patients reporting facial flushing,[3]; 25 mg per day,one
same,patients with any significant side effects of sildenafil treatment,[3]; 25 mg per day,None
same,patients with any worsening of their Parkinson's Disease symptoms,[3]; 25 mg per day,None
same,patients with significant improvement in their dyskinesias,[3]; 25 mg per day in addition to usual Parkinson's Disease medications,Five of the seven
